Measured values reported in US12564547B2, “Compositions, formulations, and methods for skin treatment” (Oddity Labs, LLC, priority 2022, dated 2026).

Key:
Format in all cases: cell-based
Nrf2-ARE pathway = experiment: KeratinoSens Nrf2-ARE reporter assay (ARE-luciferase activity); conditions: across a concentration range
Method: (§1) The safety/toxicology profiles of a compound or salt of the present disclosure was evaluated via a series of in vitro genotoxicity assays, including the SOS-chromotest to determine bacterial genotoxicity, and the TK.6 micronucleus assay to determine chromosomal damage and forward mutations. Standard reactive oxygen species (ROS) and caspase 3/7 assay were conducted to determine general cellular toxicity. Moreover, a series of sensitization tests were conducted to predict any potential skin sensitivity. These include the direct peptide reactivity assay to evaluate haptenization, the KeratinoSens reporter assay to determine any potential sensitivity via the activation of a cytoprotective pathway, and an immunological assay using human immature monocyte-derived dendritic cells to evaluate any potential immunogenicity.
The Nrf2-ARE pathway is a master regulator of cytoprotective responses to oxidative stress, and is an early indicator of skin sensitization. Nrf2 (nuclear factor erythroid 2-related factor) is a transcription factor that binds to antioxidant responsive elements (ARE). By fusing ARE to the light-producing luciferase gene, a KeratinoSens Nrf2-ARE reporter assay was constructed whereby luciferase signal is directly correlated to Nrf2-ARE pathway activation. […] FIG. 6B describes an in vitro dendritic cell sensitization test. Dendritic cell activation is widely-associated with downstream immunogenicity. CD14+ cells from human donor peripheral mononuclear cells were harvested and differentiated them into immature monocyte-derived DCs using granulocyte-macrophage colony-stimulating factor (GM-CSF) and interleukin-4 (IL-4), then treated with the lead compounds. Killed E. Coli and TNF-α were used as positive controls. FIG. 6C-FIG. 6E are example plots showing change in HLA-DR expression. Expression of CD80 (FIG. 6C), PDL-1 (FIG. 6D), and CD141 (FIG. 6E) as quantified via mean fluorescence intensity (MFI) following dosing with example compounds. […] In FIG. 6A-FIG. 6E, data represents mean±s.d. and representative of at least 2 experimental replicates.

TK.6 lymphoblasts = experiment: In vitro genotoxicity: TK.6 micronuclei assay (FIG. 5B) and SOS chromotest (FIG. 5C); conditions: TK.6 micronuclei assay without S9, 24 hr, and SOS chromotest; across a concentration range
Method: as §1
TK.6 lymphoblasts are a cell line used for gene mutation analyses. TK.6 lymphoblasts are heterozygous for the thymidine kinase gene (TK) and enable the detection of forward mutations and chromosomal damage, which manifests as micronuclei. TK.6 lymphoblasts are detectable via flow cytometry. TK.6 cells were dosed with the compounds or a vehicle control (0.1% v/v DMSO) and cultured without S9 metabolic activation for 24 hr. FIG. 5A-FIG. 5E show the results of in vitro genotoxicity assay and the TK.6 micronucleus assay. FIG. 5A are example plots of TK.6 cells treated with compound V-1. Methyl methanesulfonate, a genotoxic, alkylating agent was used as a positive control for micronuclei detection. […] The SOS chromotest is a bacteria-based test for genotoxicity. […] Cells were treated with either the compounds or vehicle control containing correspondingly % v/v-matched amounts of DMSO. High represents 10 µg/mL while low represents 1 μg/mL. Tested compounds elicited no or minor caspase 3/7 activation at low and high concentrations. In FIG. 5A-FIG. 5E, data represents mean±s.d. and representative of at least 2 experimental replicates.

human dermal fibroblasts = experiment: Human dermal fibroblast cells (hDFC) proliferation, cell viability assay (CellTiter-Glo, manual cell counting); conditions: hDFCs proliferation; control is DMSO

Q: How did the “skin sensitizing potential (Nrf2-ARE pathway activation)” value (“skin sensitizing potential” below) (Nrf2-ARE pathway) turn out when `CN(C)C(=O)COC(=O)c1ccc2[nH]c3c(c2c1)CCCC3` [IV-2, [2-(dimethylamino)-2-oxoethyl] 6,7,8,9-tetrahydro-5H-carbazole-3-carboxylate] was run?
A: Its value is “did not exhibit apparent Nrf2-ARE pathway activation”.

Q: What about the genotoxic transformation potential (TK.6 lymphoblasts) of the same compound?
A: Its genotoxic transformation potential is “mild genotoxicity at higher concentrations”.

Q: What about the “Activity (Percent Increase Proliferation of hFDPCs (%))” value (human dermal fibroblasts) of the same compound?
A: Its value is “B (increased proliferation of hFDPCs equals to or larger than 1% and less than 4%)”.

Q: With `CCOCCCn1c(=O)[nH]c2ccccc2c1=O` [V-1, 3-(3-ethoxypropyl)-1H-quinazoline-2,4-dione] as the compound, how does the “skin sensitizing potential” value (Nrf2-ARE pathway) read?
A: Its value is “did not exhibit apparent Nrf2-ARE pathway activation”.

Q: And the genotoxic transformation potential (TK.6 lymphoblasts)?
A: The genotoxic transformation potential was “did not exhibit any genotoxic transformation potential”.

Q: And the “Activity (Percent Increase Proliferation of hFDPCs (%))” value (human dermal fibroblasts)?
A: Its value is “C (increased proliferation of hFDPCs equals to or larger than 4% and less than 8%)”.

Q: How did the “skin sensitizing potential” value (Nrf2-ARE pathway) turn out when `COc1ccc(CCCc2nc3ccccc3[nH]2)cc1` [VII-34, 2-[3-(4-methoxyphenyl)propyl]-1H-benzimidazole] was run?
A: The value was “did not exhibit apparent Nrf2-ARE pathway activation”.

Q: What about the “Activity (Percent Increase Proliferation of hFDPCs (%))” value (human dermal fibroblasts) of the same compound?
A: Its value is “D (increased proliferation of hFDPCs equals to or larger than 8%)”.

Q: With `CCCCC(=O)NCCc1ccc(OC)cc1` [II-1, N-[2-(4-methoxyphenyl)ethyl]pentanamide] as the compound, how does the “skin sensitizing potential” value (Nrf2-ARE pathway) read?
A: Its value is “did not exhibit apparent Nrf2-ARE pathway activation”.

Q: What about the genotoxic transformation potential (TK.6 lymphoblasts) of the same compound?
A: The genotoxic transformation potential was “mild genotoxicity at higher concentrations”.

Q: And the “Activity (Percent Increase Proliferation of hFDPCs (%))” value (human dermal fibroblasts)?
A: The value was “C (increased proliferation of hFDPCs equals to or larger than 4% and less than 8%)”.

Q: How did the “skin sensitizing potential” value (Nrf2-ARE pathway) turn out when `Cn1c(SCC(=O)N2CCCCCC2)nnc1-c1ccccc1` [I-1, 1-(azepan-1-yl)-2-[(4-methyl-5-phenyl-1,2,4-triazol-3-yl)sulfanyl]ethanone] was run?
A: Its value is “did not exhibit apparent Nrf2-ARE pathway activation”.

Q: And the genotoxic transformation potential (TK.6 lymphoblasts)?
A: Its genotoxic transformation potential is “mild genotoxicity at higher concentrations”.

Q: What about the “Activity (Percent Increase Proliferation of hFDPCs (%))” value (human dermal fibroblasts) of the same compound?
A: The value was “C (increased proliferation of hFDPCs equals to or larger than 4% and less than 8%)”.

Q: For `COc1ccc(NC(=O)C(=O)NCCCn2ccnc2)cc1` [III-1, N-(3-imidazol-1-ylpropyl)-N′-(4-methoxyphenyl)oxamide], which “skin sensitizing potential” value (Nrf2-ARE pathway) is on record?
A: Its value is “did not exhibit apparent Nrf2-ARE pathway activation”.

Q: What about the genotoxic transformation potential (TK.6 lymphoblasts) of the same compound?
A: Its genotoxic transformation potential is “mild genotoxicity at higher concentrations”.

Q: And the “Activity (Percent Increase Proliferation of hFDPCs (%))” value (human dermal fibroblasts)?
A: The value was “D (increased proliferation of hFDPCs equals to or larger than 8%)”.

Q: `CN(C)c1ccccc1CN1CCCCC1C(=O)O` (stereo not shown) [VII-16, 1-[[2-(dimethylamino)phenyl]methyl]piperidine-2-carboxylic acid] was tested. Which “Activity (Percent Increase Proliferation of hFDPCs (%))” value (human dermal fibroblasts) did it give?
A: Its value is “D (increased proliferation of hFDPCs equals to or larger than 8%)”.

Q: For `O[C@H]1CCNC[C@]12CCCNC2` [VII-7, (5S,6R)-2,8-diazaspiro[5.5]undecan-5-ol], which “Activity (Percent Increase Proliferation of hFDPCs (%))” value (human dermal fibroblasts) is on record?
A: Its value is “D (increased proliferation of hFDPCs equals to or larger than 8%)”.

Q: For `C=CCn1c(SCC(=O)N2CCCCC2)nnc1-c1ccncc1` [I-6, 1-piperidin-1-yl-2-[(4-prop-2-enyl-5-pyridin-4-yl-1,2,4-triazol-3-yl)sulfanyl]ethanone], which “Activity (Percent Increase Proliferation of hFDPCs (%))” value (human dermal fibroblasts) is on record?
A: Its value is “C (increased proliferation of hFDPCs equals to or larger than 4% and less than 8%)”.

Q: For `Cn1c(SCC(=O)N2CCCCC2)nnc1-c1ccccc1` [I-7, 2-[(4-methyl-5-phenyl-1,2,4-triazol-3-yl)sulfanyl]-1-piperidin-1-ylethanone], which “Activity (Percent Increase Proliferation of hFDPCs (%))” value (human dermal fibroblasts) is on record?
A: Its value is “B (increased proliferation of hFDPCs equals to or larger than 1% and less than 4%)”.

Q: How did the “Activity (Percent Increase Proliferation of hFDPCs (%))” value (human dermal fibroblasts) turn out when `Nn1c(SCC(=O)N2CCCCC2)nnc1-c1ccccc1` [I-2, 2-[(4-amino-5-phenyl-1,2,4-triazol-3-yl)sulfanyl]-1-piperidin-1-ylethanone] was run?
A: The value was “B (increased proliferation of hFDPCs equals to or larger than 1% and less than 4%)”.

Q: How did the “Activity (Percent Increase Proliferation of hFDPCs (%))” value (human dermal fibroblasts) turn out when `COc1ccc(CNC(=O)C(=O)NC(C)c2ccccc2)cc1` (stereo not shown) [III-3, N-[(4-methoxyphenyl)methyl]-N′-(1-phenylethyl)oxamide] was run?
A: Its value is “B (increased proliferation of hFDPCs equals to or larger than 1% and less than 4%)”.

Q: For `Cc1[nH]c2ccc(C(=O)NCC3CCCO3)cc2c1C` (stereo not shown) [IV-1, 2,3-dimethyl-N-(oxolan-2-ylmethyl)-1H-indole-5-carboxamide], which “skin sensitizing potential” value (Nrf2-ARE pathway) is on record?
A: Its value is “exhibited sensitizing potential”.

Q: And the genotoxic transformation potential (TK.6 lymphoblasts)?
A: The genotoxic transformation potential was “mild genotoxicity at higher concentrations”.

Q: What about the “Activity (Percent Increase Proliferation of hFDPCs (%))” value (human dermal fibroblasts) of the same compound?
A: Its value is “C (increased proliferation of hFDPCs equals to or larger than 4% and less than 8%)”.

Q: For `COc1ccc(CNC(=O)C(=O)NCCCn2ccnc2)cc1` [III-2, N-(3-imidazol-1-ylpropyl)-N′-[(4-methoxyphenyl)methyl]oxamide], which “Activity (Percent Increase Proliferation of hFDPCs (%))” value (human dermal fibroblasts) is on record?
A: The value was “D (increased proliferation of hFDPCs equals to or larger than 8%)”.

Q: For `CC1=NN(C=O)C(C)(C)C1` [VII-5, 3,5,5-trimethyl-4H-pyrazole-1-carbaldehyde], which “Activity (Percent Increase Proliferation of hFDPCs (%))” value (human dermal fibroblasts) is on record?
A: The value was “D (increased proliferation of hFDPCs equals to or larger than 8%)”.

Q: `NC1CSCC1O` (stereo not shown) [VII-3, 4-aminothiolan-3-ol] was tested. Which “Activity (Percent Increase Proliferation of hFDPCs (%))” value (human dermal fibroblasts) did it give?
A: Its value is “D (increased proliferation of hFDPCs equals to or larger than 8%)”.

Q: Which “Activity (Percent Increase Proliferation of hFDPCs (%))” value (human dermal fibroblasts) does the source give for `CCC(N)Cn1ccnc1` (stereo not shown) [VII-29, 1-imidazol-1-ylbutan-2-amine] here?
A: The value was “A (increased proliferation of hFDPCs of less than 1%)”.

Q: With `CC1=C(/C=C/C(C)=C/C=C/C(C)=C/CO)C(C)(C)CCC1` [Retinol, reference compound] as the compound, how does the “Activity (Percent Increase Proliferation of hFDPCs (%))” value (human dermal fibroblasts) read?
A: The value was “B (increased proliferation of hFDPCs equals to or larger than 1% and less than 4%)”.

Q: `COCCNC(=O)c1ccc2[nH]c3c(c2c1)CCCC3` [IV-3, N-(2-methoxyethyl)-6,7,8,9-tetrahydro-5H-carbazole-3-carboxamide] was tested. Which “Activity (Percent Increase Proliferation of hFDPCs (%))” value (human dermal fibroblasts) did it give?
A: The value was “D (increased proliferation of hFDPCs equals to or larger than 8%)”.

Q: How did the “Activity (Percent Increase Proliferation of hFDPCs (%))” value (human dermal fibroblasts) turn out when `NC12CN3CN(CN(C3)C1)C2` [VII-4, 1,3,5-triazatricyclo[3.3.1.13,7]decan-7-amine] was run?
A: Its value is “D (increased proliferation of hFDPCs equals to or larger than 8%)”.

Q: With oxetan-3-amine [VII-13] as the compound, how does the “Activity (Percent Increase Proliferation of hFDPCs (%))” value (human dermal fibroblasts) read?
A: Its value is “D (increased proliferation of hFDPCs equals to or larger than 8%)”.

Q: With `CN(C)c1ccccc1CN1CCN(C(=O)N2CCOCC2)CC1` [VII-23, [4-[[2-(dimethylamino)phenyl]methyl]piperazin-1-yl]-morpholin-4-ylmethanone] as the compound, how does the “Activity (Percent Increase Proliferation of hFDPCs (%))” value (human dermal fibroblasts) read?
A: The value was “D (increased proliferation of hFDPCs equals to or larger than 8%)”.

Q: Which “Activity (Percent Increase Proliferation of hFDPCs (%))” value (human dermal fibroblasts) does the source give for `COCCN(CCCc1ccccc1)C(=O)NC(C)Cn1ccnc1` (stereo not shown) [VII-31, 3-(1-imidazol-1-ylpropan-2-yl)-1-(2-methoxyethyl)-1-(3-phenylpropyl)urea] here?
A: Its value is “A (increased proliferation of hFDPCs of less than 1%)”.

Q: With `CN(C)CCn1c(=O)[nH]c2ccccc2c1=O` [V-3, 3-[2-(dimethylamino)ethyl]-1H-quinazoline-2,4-dione] as the compound, how does the “Activity (Percent Increase Proliferation of hFDPCs (%))” value (human dermal fibroblasts) read?
A: Its value is “A (increased proliferation of hFDPCs of less than 1%)”.

Q: Which “Activity (Percent Increase Proliferation of hFDPCs (%))” value (human dermal fibroblasts) does the source give for `Cc1ccc(-c2nnc(SCC(=O)N3CCCC3)n2N)cc1` [I-3, 2-[[4-amino-5-(4-methylphenyl)-1,2,4-triazol-3-yl]sulfanyl]-1-pyrrolidin-1-ylethanone] here?
A: Its value is “C (increased proliferation of hFDPCs equals to or larger than 4% and less than 8%)”.

Q: For `O=C(O)CNC(=O)c1ccc2[nH]c3c(c2c1)CCCC3` [IV-6, 2-(6,7,8,9-tetrahydro-5H-carbazole-3-carbonylamino)acetic acid], which “Activity (Percent Increase Proliferation of hFDPCs (%))” value (human dermal fibroblasts) is on record?
A: Its value is “B (increased proliferation of hFDPCs equals to or larger than 1% and less than 4%)”.

Q: With `CCN1C(=S)N(C)NC1(C)C` [VII-1, 4-ethyl-2,5,5-trimethyl-1,2,4-triazolidine-3-thione] as the compound, how does the “Activity (Percent Increase Proliferation of hFDPCs (%))” value (human dermal fibroblasts) read?
A: Its value is “D (increased proliferation of hFDPCs equals to or larger than 8%)”.
